Data taken from the supplement of paper PMC13380429.
Counter-ions that a name gives are not always drawn. ± gives the standard deviation of the averaged measurements.

How the values were obtained:
Details in all cases: 72 h
Calu-3 [1] = experiment: relative viability EC50 (midpoint between 100% and the lowest measured viability); higher = less toxic
Vero E6 [2] = experiment: as above
HepG2 [3] = experiment: as above
U2OS [4] = experiment: as above
Caco-2 [5] = experiment: as above
Calu-3 [6] = experiment: drug sensitivity score (DSS) for viability; higher = more toxic; extreme values may be limits of the assay
Vero E6 [7] = experiment: as above
HepG2 [8] = experiment: as above
U2OS [9] = experiment: as above
Caco-2 [10] = experiment: as above
Calu-3 [11] = experiment: cell viability relative to DMSO; higher = less toxic
Vero E6 [12] = experiment: as above
HepG2 [13] = experiment: as above
U2OS [14] = experiment: as above
Caco-2 [15] = experiment: as above

SMILES | relative viability EC50 (Calu-3 [1]) | relative viability EC50 (Vero E6 [2]) | relative viability EC50 (HepG2 [3]) | relative viability EC50 (U2OS [4]) | relative viability EC50 (Caco-2 [5]) | drug sensitivity score (Calu-3 [6]) | drug sensitivity score (Vero E6 [7]) | drug sensitivity score (HepG2 [8]) | drug sensitivity score (U2OS [9]) | drug sensitivity score (Caco-2 [10]) | cell viability (Calu-3 [11]; 1 nM) | cell viability (Calu-3 [11]; 10 nM) | cell viability (Calu-3 [11]; 100 nM) | cell viability (Calu-3 [11]; 1000 nM) | cell viability (Calu-3 [11]; 10000 nM) | cell viability (Vero E6 [12]; 1 nM) | cell viability (Vero E6 [12]; 10 nM) | cell viability (Vero E6 [12]; 100 nM) | cell viability (Vero E6 [12]; 1000 nM) | cell viability (Vero E6 [12]; 10000 nM) | cell viability (HepG2 [13]; 1 nM) | cell viability (HepG2 [13]; 10 nM) | cell viability (HepG2 [13]; 100 nM) | cell viability (HepG2 [13]; 1000 nM) | cell viability (HepG2 [13]; 10000 nM) | cell viability (U2OS [14]; 1 nM) | cell viability (U2OS [14]; 10 nM) | cell viability (U2OS [14]; 100 nM) | cell viability (U2OS [14]; 1000 nM) | cell viability (U2OS [14]; 10000 nM) | cell viability (Caco-2 [15]; 1 nM) | cell viability (Caco-2 [15]; 10 nM) | cell viability (Caco-2 [15]; 100 nM) | cell viability (Caco-2 [15]; 1000 nM) | cell viability (Caco-2 [15]; 10000 nM)
COC(=O)C(c1ccccc1)C1CCCCN1 (stereo not given) [METHYLPHENIDATE HYDROCHLORIDE] | > 10 µM | > 10 µM | > 10 µM | > 10 µM | > 10 µM | 0 | 0 | 0 | 0 | 0 | 100% | 102% | 91.1% | 105% | 101% | 99.7% | 97.3% | 98.5% | 98.9% | 102% | 108% | 95.2% | 91.4% | 102% | 99% | 96.5% | 102% | 92.1% | 95.3% | 98.6% | 97% | 99.5% | 91.2% | 103% | 104%
N[C@@H](CCNCc1ccc(Cl)cc1)C(=O)N1CCCCC1 | > 10 µM | > 10 µM | > 10 µM | > 10 µM | > 10 µM | 0 | 0 | 0 | 0 | 0 | 108% | 98.1% | 101% | 101% | 93.2% | 94.1% | 99.3% | 91% | 100% | 103% | 101% | 109% | 102% | 112% | 95.9% | 98.9% | 99% | 104% | 99.5% | 101% | 95.9% | 94.3% | 101% | 96.6% | 98.4%
CCCCNc1ncc(-c2ccc(CN3CCOCC3)cn2)c(N[C@H]2CC[C@H](O)CC2)n1 [UNC2250] | > 10 µM | > 10 µM | > 10 µM | > 10 µM | > 10 µM | 0 | 0 | 0 | 0 | 0 | 102% | 102% | 94.7% | 108% | 98.9% | 101% | 99.6% | 94.5% | 91.9% | 99.1% | 108% | 102% | 109% | 97.7% | 100% | 97.9% | 98.8% | 99.9% | 100% | 94.8% | 97.1% | 103% | 105% | 108% | 103%
O=C(NC1CCN(CCc2c[nH]c3ccccc23)CC1)c1ccccc1 [indoramin] | > 10 µM | > 10 µM | > 10 µM | > 10 µM | > 10 µM | 0 | 0 | 0 | 0 | 0 | 90.4% | 92.8% | 103% | 101% | 107% | 96.7% | 94.4% | 98.7% | 99.7% | 102% | 100% | 92.9% | 105% | 98.9% | 95.9% | 95.3% | 99.3% | 97.5% | 104% | 100% | 89.4% | 98.2% | 101% | 101% | 99.5%
CCn1nc(C(=O)O)c(=O)c2cc3c(cc21)OCO3 [cinoxacin] | > 10 µM | > 10 µM | > 10 µM | > 10 µM | > 10 µM | 0 | 0 | 0 | 0 | 0 | 99.3% | 98.6% | 89.4% | 93.9% | 98.7% | 91.4% | 102% | 92.1% | 89.4% | 102% | 100% | 86.1% | 110% | 85.1% | 103% | 95.1% | 97.3% | 94.2% | 98.5% | 99.5% | 99.3% | 100% | 100% | 106% | 98.3%
CC(C)[C@@H]1C(=O)N(S(C)(=O)=O)[C@@H]2CCN(C(=O)/C=C/CN3CCCCC3)[C@H]21 | > 10 µM | > 10 µM | > 10 µM | > 10 µM | > 10 µM | 0 | 0 | 0.1 | 0 | 0 | 95.9% | 95.4% | 102% | 103% | 100% | 97.2% | 102% | 93.4% | 98.6% | 91.4% | 92.2% | 92.6% | 104% | 104% | 85.3% | 101% | 98.8% | 103% | 99.1% | 101% | 110% | 94.3% | 94.4% | 97.6% | 94.4%
O=C([O-])C(O)[C@H](O)[C@@H](O)[C@H](O)[C@H](O)CO.O=C([O-])C(O)[C@H](O)[C@@H](O)[C@H](O)[C@H](O)CO.[Ca+2] (stereo not given in full) [calcium-gluceptate] | > 10 µM | > 10 µM | > 10 µM | > 10 µM | > 10 µM | 0 | 0 | 0 | 0 | 0 | 138 ± 44% | 99 ± 6.2% | 101 ± 7.8% | 94.2 ± 20% | 97.4 ± 1.1% | 97.2 ± 7.6% | 85.1 ± 15% | 91.5 ± 2.7% | 82.3 ± 16% | 108.3 ± 0.49% | 100 ± 12% | 95.1 ± 23% | 103 ± 6.7% | 100 ± 4% | 100 ± 8% | 98.9% | 89.9% | 101% | 95.3% | 106% | 95.7 ± 8% | 93.6 ± 0.71% | 92.9 ± 8.3% | 98.8 ± 2.1% | 103.5 ± 0.14%
CCN1CCN(c2cc(-c3ccc(F)cc3)c3c(n2)CCCCCC3)CC1 [blonanserin] | > 10 µM | > 10 µM | > 10 µM | > 10 µM | > 10 µM | 0 | 0 | 0 | 0 | 0 | 89.4% | 93.4% | 94.5% | 111% | 92.7% | 98.2% | 101% | 95% | 93.2% | 102% | 95.1% | 88% | 92.3% | 92.9% | 92.9% | 100% | 97.3% | 96.4% | 103% | 92.9% | 94% | 108% | 98.3% | 102% | 95.5%
O=C(O[C@H]1C[C@H]2CC[C@@H](C1)[N+]21CCCC1)C(O)(c1ccccc1)c1ccccc1 [trospium] | > 10 µM | > 10 µM | > 10 µM | > 10 µM | > 10 µM | 0 | 0 | 0 | 0 | 0 | 101% | 101% | 97.2% | 98.2% | 94.3% | 95.6% | 99.5% | 93% | 95.3% | 102% | 98.3% | 93.8% | 107% | 94.8% | 108% | 95.7% | 97.5% | 101% | 99.1% | 88.9% | 92.8% | 97.1% | 94.7% | 98.3% | 99.9%
CCN1CCC[C@H]1CNC(=O)c1c(OC)ccc(Br)c1OC [remoxipride] | > 10 µM | > 10 µM | > 10 µM | > 10 µM | > 10 µM | 1.3 | 0 | 0 | 0 | 0 | 96.3% | 113% | 99.7% | 94.3% | 79.9% | 96.2% | 100% | 94.3% | 91.4% | 91.7% | 111% | 92% | 101% | 96.5% | 94.1% | 101% | 103% | 98% | 105% | 95.7% | 99.9% | 104% | 88.7% | 99.1% | 92.7%
CCOCCOc1ccccc1C(N)=O [etosalamide] | > 10 µM | > 10 µM | > 10 µM | > 10 µM | > 10 µM | 0 | 0 | 0 | 0 | 0 | 102% | 90.5% | 97.6% | 101% | 98.7% | 104% | 93.7% | 93.3% | 95.4% | 96.1% | 111% | 104% | 86.7% | 101% | 92.3% | 102% | 99.9% | 102% | 101% | 97.7% | 91.3% | 89.5% | 108% | 97.9% | 100%
O=C(O)c1ccc(-c2c[nH]c3ncc(-c4ccccc4)cc23)cc1C1CCCC1 | > 10 µM | > 10 µM | > 10 µM | > 10 µM | > 10 µM | 0 | 0 | 1.1 | 0 | 0 | 98.8% | 92.9% | 97.6% | 107% | 107% | 109% | 106% | 104% | 97% | 101% | 103% | 100% | 107% | 89.6% | 84.2% | 96.4% | 94.9% | 90.4% | 97.3% | 85.8% | 92.8% | 107% | 101% | 105% | 93.5%
O[C@@H]1[C@H](O)[C@@H](CCl)O[C@H]1n1cnc2c(NC3CC4CCC3C4)ncnc21 (mixture of isomers) [5'-chloro-5'-deoxy-ENBA-(+/-)] | > 10 µM | > 10 µM | > 10 µM | > 10 µM | > 10 µM | 0 | 0 | 0.2 | 0 | 0.4 | 99.1% | 98% | 93.3% | 94.8% | 90.2% | 96.7% | 97.2% | 94.3% | 91.9% | 91.5% | 96% | 99.6% | 96.2% | 99.5% | 85.4% | 104% | 100% | 99.3% | 104% | 97.6% | 98.8% | 99.6% | 99.2% | 97.2% | 86.1%
C[N@+]1(CC2CC2)CC[C@]23c4c5ccc(O)c4O[C@H]2C(=O)CC[C@@]3(O)[C@H]1C5 [methylnaltrexone] | > 10 µM | > 10 µM | > 10 µM | > 10 µM | > 10 µM | 0 | 0 | 0 | 0 | 0 | 104% | 95% | 107% | 97.1% | 103% | 97.3% | 105% | 96.9% | 97.2% | 94.5% | 93.2% | 97.7% | 91.9% | 96.8% | 92.3% | 104% | 95.2% | 98.4% | 97.5% | 99.6% | 101% | 95.6% | 99.8% | 94.2% | 90.8%
